This note sets out measurements from the supplement of paper PMC12463676, “Small-molecule dissolution of stress granules by redox modulation benefits ALS models” (Nature Chemical Biology, 2025).

Compound in one experiment: NC(=O)CCCCC1CCSS1 [lipoamide]
The experiment is described as follows: thermal stability z-score vs DMSO; higher = more thermally stabilized by treatment. The note with it: HeLa, lipoamide concentration 100 µM. The method, then:
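Cellular thermal proteome profiling in HeLa cells. Cells were treated with 100 µM lipoamide for 1 h, with or without 1 mM arsenate for a further 1 h, then heated to ten temperatures (37-66.3 °C), and soluble protein was quantified by TMT mass spectrometry relative to 0.1% DMSO controls. The thermal stability score (sum of log2 fold changes minus the abundance score) was transformed to a z-score; mean of n = 3 experiments.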

Compound in the next experiment: O=[As]([O-])(O)O.[K+] [potassium arsenate]
The description is as above. The note with it: HeLa; arsenate concentration 1 mM. Here is the method:
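Cellular thermal proteome profiling in HeLa cells treated with 1 mM arsenate for 1 h (DMSO pretreatment), heated to ten temperatures (37-66.3 °C). Soluble protein was quantified by TMT mass spectrometry relative to DMSO controls; the thermal stability score was transformed to a z-score; mean of n = 3 experiments.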

Where [1] appears, read: arsenate co-treatment: 1 mM arsenate 1 h.
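Note: each temperature applied for 3 min, abundance score taken as mean log2 fold change at the two lowest temperatures, z-score obtained by mean subtraction and division by SD.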

Sequence of UniProt O95219 (O95219 whole entry): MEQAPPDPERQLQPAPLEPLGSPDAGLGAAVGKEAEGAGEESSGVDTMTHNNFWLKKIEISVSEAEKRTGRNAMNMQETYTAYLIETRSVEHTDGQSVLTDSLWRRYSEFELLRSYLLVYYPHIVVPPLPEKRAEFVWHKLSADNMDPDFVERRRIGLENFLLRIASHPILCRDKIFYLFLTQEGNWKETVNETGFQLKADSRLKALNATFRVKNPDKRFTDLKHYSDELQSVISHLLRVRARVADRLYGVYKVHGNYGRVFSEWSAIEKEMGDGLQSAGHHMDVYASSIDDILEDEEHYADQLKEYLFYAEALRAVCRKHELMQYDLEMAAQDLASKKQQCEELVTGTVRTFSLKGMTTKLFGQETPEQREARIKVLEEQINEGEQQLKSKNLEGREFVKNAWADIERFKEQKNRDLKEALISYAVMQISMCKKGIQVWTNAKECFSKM
Sequence of UniProt P61956 (P61956 whole entry): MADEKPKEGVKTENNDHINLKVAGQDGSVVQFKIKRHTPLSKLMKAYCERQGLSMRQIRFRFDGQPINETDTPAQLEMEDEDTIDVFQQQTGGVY
Sequence of UniProt Q9H2P0 (Q9H2P0 whole entry): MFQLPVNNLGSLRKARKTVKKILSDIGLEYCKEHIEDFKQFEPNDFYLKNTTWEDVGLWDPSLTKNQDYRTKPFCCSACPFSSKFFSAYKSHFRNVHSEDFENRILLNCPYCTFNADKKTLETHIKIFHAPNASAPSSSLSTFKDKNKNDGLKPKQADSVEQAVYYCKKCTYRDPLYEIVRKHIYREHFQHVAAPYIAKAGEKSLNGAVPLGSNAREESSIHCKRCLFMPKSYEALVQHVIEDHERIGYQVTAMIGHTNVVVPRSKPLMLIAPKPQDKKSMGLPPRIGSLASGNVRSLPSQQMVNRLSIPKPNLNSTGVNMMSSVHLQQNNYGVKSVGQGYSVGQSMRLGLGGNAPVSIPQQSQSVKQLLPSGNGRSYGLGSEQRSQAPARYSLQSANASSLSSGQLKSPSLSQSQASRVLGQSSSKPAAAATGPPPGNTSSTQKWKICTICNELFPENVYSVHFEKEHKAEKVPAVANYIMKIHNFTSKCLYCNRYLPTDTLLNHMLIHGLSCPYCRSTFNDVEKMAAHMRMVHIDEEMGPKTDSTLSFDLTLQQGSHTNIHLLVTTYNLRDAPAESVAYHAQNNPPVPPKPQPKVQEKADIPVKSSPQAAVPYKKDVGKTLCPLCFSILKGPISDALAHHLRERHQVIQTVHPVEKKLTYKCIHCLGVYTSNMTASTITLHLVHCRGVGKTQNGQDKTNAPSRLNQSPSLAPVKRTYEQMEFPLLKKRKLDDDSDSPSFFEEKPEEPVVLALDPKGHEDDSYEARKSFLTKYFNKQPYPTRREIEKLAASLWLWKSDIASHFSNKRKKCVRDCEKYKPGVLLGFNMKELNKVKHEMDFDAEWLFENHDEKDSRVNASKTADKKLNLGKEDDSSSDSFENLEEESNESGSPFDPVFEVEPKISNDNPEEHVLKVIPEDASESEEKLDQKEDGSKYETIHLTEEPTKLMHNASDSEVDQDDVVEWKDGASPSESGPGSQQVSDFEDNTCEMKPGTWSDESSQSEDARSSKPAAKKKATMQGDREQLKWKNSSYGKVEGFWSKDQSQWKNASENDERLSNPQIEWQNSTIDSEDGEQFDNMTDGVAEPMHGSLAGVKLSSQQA
Sequence of UniProt O75061 (O75061 whole entry): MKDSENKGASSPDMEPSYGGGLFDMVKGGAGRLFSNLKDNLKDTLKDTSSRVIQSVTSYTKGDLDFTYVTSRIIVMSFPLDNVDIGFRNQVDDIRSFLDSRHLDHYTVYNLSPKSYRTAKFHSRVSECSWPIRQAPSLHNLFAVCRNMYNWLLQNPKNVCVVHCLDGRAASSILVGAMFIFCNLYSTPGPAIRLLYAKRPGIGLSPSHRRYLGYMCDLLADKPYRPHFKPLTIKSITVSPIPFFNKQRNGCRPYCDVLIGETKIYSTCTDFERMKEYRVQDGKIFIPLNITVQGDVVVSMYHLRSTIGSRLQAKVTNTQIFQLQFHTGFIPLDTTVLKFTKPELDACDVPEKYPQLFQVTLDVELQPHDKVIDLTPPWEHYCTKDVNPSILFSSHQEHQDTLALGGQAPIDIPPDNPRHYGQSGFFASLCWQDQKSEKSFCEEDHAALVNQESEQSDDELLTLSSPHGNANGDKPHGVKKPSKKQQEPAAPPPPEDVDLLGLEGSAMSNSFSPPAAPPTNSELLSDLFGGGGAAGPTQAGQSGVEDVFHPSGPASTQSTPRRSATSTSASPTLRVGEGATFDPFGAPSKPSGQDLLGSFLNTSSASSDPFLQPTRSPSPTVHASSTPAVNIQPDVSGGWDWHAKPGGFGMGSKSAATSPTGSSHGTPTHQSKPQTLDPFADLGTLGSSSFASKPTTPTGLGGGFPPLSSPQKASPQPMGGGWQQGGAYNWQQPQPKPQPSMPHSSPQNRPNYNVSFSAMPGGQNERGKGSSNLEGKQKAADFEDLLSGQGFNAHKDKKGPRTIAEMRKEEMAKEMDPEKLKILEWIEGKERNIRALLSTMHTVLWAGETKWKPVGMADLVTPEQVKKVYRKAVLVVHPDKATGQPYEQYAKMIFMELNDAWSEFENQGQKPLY
Sequence of UniProt Q9Y2A7 (Q9Y2A7 whole entry): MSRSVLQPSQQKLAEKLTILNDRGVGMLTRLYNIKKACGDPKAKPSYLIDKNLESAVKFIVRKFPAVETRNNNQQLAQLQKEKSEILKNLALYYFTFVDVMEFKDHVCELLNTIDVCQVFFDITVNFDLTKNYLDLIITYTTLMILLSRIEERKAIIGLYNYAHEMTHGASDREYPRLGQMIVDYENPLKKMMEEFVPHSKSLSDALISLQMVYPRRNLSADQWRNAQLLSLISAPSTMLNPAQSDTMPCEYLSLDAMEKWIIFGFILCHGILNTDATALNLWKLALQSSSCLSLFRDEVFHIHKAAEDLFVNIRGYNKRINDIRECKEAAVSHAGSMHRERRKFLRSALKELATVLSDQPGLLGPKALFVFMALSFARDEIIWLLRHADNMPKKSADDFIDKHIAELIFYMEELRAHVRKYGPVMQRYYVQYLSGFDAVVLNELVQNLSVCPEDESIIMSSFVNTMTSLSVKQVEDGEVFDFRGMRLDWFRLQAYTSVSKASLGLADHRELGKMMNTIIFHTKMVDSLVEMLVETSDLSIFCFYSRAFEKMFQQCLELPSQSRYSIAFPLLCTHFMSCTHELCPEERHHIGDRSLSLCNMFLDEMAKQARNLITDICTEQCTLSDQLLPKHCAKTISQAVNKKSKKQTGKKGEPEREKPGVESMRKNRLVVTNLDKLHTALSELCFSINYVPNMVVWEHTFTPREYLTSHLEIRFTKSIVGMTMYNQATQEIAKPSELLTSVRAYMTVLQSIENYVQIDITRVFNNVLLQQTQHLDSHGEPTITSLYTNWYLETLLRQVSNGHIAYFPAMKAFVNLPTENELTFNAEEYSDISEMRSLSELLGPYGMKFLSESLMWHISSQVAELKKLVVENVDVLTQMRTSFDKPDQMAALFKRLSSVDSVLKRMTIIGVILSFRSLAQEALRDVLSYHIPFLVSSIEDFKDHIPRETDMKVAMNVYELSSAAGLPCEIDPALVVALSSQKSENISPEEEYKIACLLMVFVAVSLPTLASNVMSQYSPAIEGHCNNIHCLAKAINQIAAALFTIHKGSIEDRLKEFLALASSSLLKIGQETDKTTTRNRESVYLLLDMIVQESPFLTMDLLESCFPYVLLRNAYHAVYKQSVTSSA
Sequence of UniProt Q14155 (Q14155 whole entry): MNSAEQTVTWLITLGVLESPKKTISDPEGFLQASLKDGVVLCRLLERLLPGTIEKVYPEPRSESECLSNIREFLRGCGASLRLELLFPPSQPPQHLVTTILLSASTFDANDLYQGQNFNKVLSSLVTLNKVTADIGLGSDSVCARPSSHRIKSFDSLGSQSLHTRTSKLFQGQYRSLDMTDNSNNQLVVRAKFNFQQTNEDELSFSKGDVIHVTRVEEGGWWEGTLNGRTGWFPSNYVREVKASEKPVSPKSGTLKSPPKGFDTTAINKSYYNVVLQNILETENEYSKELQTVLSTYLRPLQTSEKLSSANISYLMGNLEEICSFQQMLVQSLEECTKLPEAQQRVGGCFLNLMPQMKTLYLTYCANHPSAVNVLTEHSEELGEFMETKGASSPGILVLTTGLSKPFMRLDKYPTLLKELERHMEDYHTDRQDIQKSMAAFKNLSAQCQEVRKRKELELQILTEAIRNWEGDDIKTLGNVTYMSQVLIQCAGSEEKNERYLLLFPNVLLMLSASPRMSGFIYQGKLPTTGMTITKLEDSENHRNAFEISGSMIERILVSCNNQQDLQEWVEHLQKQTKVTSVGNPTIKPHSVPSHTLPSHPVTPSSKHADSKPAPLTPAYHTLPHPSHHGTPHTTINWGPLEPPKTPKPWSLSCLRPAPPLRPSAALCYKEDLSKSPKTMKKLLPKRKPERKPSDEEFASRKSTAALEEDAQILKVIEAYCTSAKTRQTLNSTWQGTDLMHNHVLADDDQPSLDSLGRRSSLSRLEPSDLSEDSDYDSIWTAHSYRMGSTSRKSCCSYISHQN
Sequence of UniProt Q14498 (Q14498 whole entry): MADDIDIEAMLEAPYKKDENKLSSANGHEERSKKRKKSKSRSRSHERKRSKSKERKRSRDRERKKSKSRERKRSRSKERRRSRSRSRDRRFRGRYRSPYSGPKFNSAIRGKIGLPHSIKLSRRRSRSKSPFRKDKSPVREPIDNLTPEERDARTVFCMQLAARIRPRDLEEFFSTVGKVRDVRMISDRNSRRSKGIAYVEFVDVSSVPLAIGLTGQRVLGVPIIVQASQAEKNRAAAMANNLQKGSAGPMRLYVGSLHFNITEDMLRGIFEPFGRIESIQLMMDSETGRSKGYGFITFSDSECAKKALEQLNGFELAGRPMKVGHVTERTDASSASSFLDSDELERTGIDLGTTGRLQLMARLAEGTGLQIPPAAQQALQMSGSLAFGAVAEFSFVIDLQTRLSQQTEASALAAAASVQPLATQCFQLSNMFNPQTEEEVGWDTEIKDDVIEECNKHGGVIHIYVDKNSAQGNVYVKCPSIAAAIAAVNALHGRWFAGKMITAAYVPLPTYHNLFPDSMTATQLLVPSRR

Regarding GGCT (UniProt O75223), the thermal stability z-score was found to be 1.7 with lipoamide (setting [1]), 1.02 in the experiment with lipoamide (arsenate co-treatment: none) and 1.11 with potassium arsenate.

In the case of LYPLAL1 (UniProt Q5VWZ2), the thermal stability z-score with lipoamide (setting [1]) was 0.152; with lipoamide (arsenate co-treatment: none), 0.0691; with potassium arsenate it was 0.447.

Consider NANS (UniProt Q9NR45), for which the thermal stability z-score with lipoamide (setting [1]) is 0.185; with lipoamide (arsenate co-treatment: none), 0.107; with potassium arsenate, 0.887.

In the case of SCAMP3 (UniProt O14828), the thermal stability z-score with lipoamide (setting [1]) was 0.525; in the experiment with lipoamide (arsenate co-treatment: none), 0.319; in the experiment with potassium arsenate it was -0.277.

For RBM39 (UniProt Q14498), the thermal stability z-score is -0.398 in the experiment with lipoamide (setting [1]), 0.0967 in the experiment with lipoamide (arsenate co-treatment: none) and -0.546 in the experiment with potassium arsenate.

For the target OFD1 (UniProt O75665), the thermal stability z-score with lipoamide (setting [1]) was -0.239; with lipoamide (arsenate co-treatment: none), 0.0566; with potassium arsenate, -0.000259.

Turning to AXL (UniProt P30530), the thermal stability z-score was 0.0102 with lipoamide (setting [1]), 0.0513 in the experiment with lipoamide (arsenate co-treatment: none) and 0.0984 with potassium arsenate.

As for HNRNPF (UniProt P52597), the figures for the thermal stability z-score in the experiment with lipoamide (setting [1]), with lipoamide (arsenate co-treatment: none) and with potassium arsenate were -0.401, -0.136 and -0.208, respectively.

With PIGO (UniProt Q8TEQ8), the results for the thermal stability z-score in the experiment with lipoamide (setting [1]), with lipoamide (arsenate co-treatment: none) and in the experiment with potassium arsenate were -1.23, -1.1 and -0.779, respectively.

For the target ARHGEF7 (UniProt Q14155), the thermal stability z-score with lipoamide (setting [1]) was -0.856; with lipoamide (arsenate co-treatment: none), -0.54; with potassium arsenate it was -0.0377.

For the target ADNP (UniProt Q9H2P0), the thermal stability z-score with lipoamide (setting [1]) was -0.0133; with lipoamide (arsenate co-treatment: none), -0.0224; in the experiment with potassium arsenate it was -0.271.

As for GAR1 (UniProt Q9NY12), the thermal stability z-score with lipoamide (setting [1]) is -0.515; in the experiment with lipoamide (arsenate co-treatment: none) it was -0.354; in the experiment with potassium arsenate it was -0.376.

On to LRWD1 (UniProt Q9UFC0), for which the thermal stability z-score in the experiment with lipoamide (setting [1]) was -0.0805; with lipoamide (arsenate co-treatment: none) it was -0.0419; with potassium arsenate, -0.324.

In the case of SNX4 (UniProt O95219), the thermal stability z-score in the experiment with lipoamide (setting [1]) is -0.688; with lipoamide (arsenate co-treatment: none), -0.344; with potassium arsenate, 0.288.

On to SUMO2 (UniProt P61956), for which the results for the thermal stability z-score with lipoamide (setting [1]), with lipoamide (arsenate co-treatment: none) and with potassium arsenate were 1.1, 1.59 and 0.306, respectively.

For ANP32A (UniProt P39687), the thermal stability z-score in the experiment with lipoamide (setting [1]) came out at 0.324; in the experiment with lipoamide (arsenate co-treatment: none) it was 0.51; with potassium arsenate, 0.197.

Regarding DTNBP1 (UniProt Q96EV8), the values for the thermal stability z-score in the experiment with lipoamide (setting [1]), with lipoamide (arsenate co-treatment: none) and with potassium arsenate were 0.331, 0.505 and -0.102, respectively.

Take DNAJC6 (UniProt O75061): the thermal stability z-score with lipoamide (setting [1]) was 0.617; in the experiment with lipoamide (arsenate co-treatment: none) it was 0.625; with potassium arsenate, 0.413.

OASL (UniProt Q15646): the thermal stability z-score was -0.147 with lipoamide (setting [1]), -0.0704 with lipoamide (arsenate co-treatment: none) and -0.307 with potassium arsenate.

In the case of NCKAP1 (UniProt Q9Y2A7), the thermal stability z-score is 0.0716 in the experiment with lipoamide (setting [1]), 0.602 in the experiment with lipoamide (arsenate co-treatment: none) and -0.938 with potassium arsenate.

Take RBM42 (UniProt Q9BTD8): the thermal stability z-score was 0.952 with lipoamide (setting [1]), 0.152 with lipoamide (arsenate co-treatment: none) and -0.098 in the experiment with potassium arsenate.

On to RPL22L1 (UniProt Q6P5R6), for which the thermal stability z-score with lipoamide (setting [1]) was -0.147; with lipoamide (arsenate co-treatment: none), -0.537; in the experiment with potassium arsenate, -0.919.

KANK2 (UniProt Q63ZY3): the thermal stability z-score with lipoamide (setting [1]) is -0.0369; with lipoamide (arsenate co-treatment: none), 0.0732; with potassium arsenate, -0.109.
